Read-outs that look alike come from different tables or passages of the source.
What was measured:
EAAT3 [1] = target: T1, EAAT3 (Homo sapiens, UniProt P43005); test: mEGFPpH fluorescence imaging of intracellular pH in HEK293 cells co-expressing EAAT3; conditions: for mEGFPpH fluorescence change: EAAT3 HEK293 cells
T1 sequence (P43005 1-524): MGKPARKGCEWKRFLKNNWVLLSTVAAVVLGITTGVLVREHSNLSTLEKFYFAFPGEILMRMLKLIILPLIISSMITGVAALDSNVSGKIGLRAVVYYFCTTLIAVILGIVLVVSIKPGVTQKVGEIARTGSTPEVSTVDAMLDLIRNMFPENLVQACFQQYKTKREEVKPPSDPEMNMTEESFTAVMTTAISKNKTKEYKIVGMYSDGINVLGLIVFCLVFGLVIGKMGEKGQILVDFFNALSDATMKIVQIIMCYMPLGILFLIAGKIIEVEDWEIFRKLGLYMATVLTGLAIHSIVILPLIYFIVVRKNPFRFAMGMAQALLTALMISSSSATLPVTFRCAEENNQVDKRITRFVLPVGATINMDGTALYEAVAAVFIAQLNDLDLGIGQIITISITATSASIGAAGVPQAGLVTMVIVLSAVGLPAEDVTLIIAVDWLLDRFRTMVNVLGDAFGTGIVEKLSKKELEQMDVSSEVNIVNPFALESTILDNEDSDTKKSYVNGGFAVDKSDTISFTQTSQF
Source text: (§5) Cells expressing mEGFPpH were imaged with a Zeiss Axiovert 135T inverted microscope with a 40X NeoFluar oil immersion objective (NA1.3). A Lambda DG4 (Sutter Instrument Co.) equipped with a xenon arc lamp was used for high-speed excitation wavelength switching. Images were collected using either a Quantix (Roper Scientific, Tucson, AZ) or an Orca ER (Hammamatsu Co.) cooled CCD. For pH imaging experiments, the fluorescence filters (Omega Optical) were: excitation 405±20 and 485±7.5; dichroic 400-480-585DLRP; emission 510±11.5. Software control and data acquisition were accomplished using Axon Imaging Workbench (INDEC Biosystems) or OpenLab acquisition software (Improvision, Perkin Elmer). Cells were incubated at room temperature with continuous perfusion using standard buffer containing (in mM): 146 NaCl, 5 KCl, 5 HEPES, 2.5 CaCl2 and 1.2 MgCl2 at pH 7.35 with additions (substrates etc.) as indicated in figure legends. Acquisition exposure times were identical for both 405 nm and 485 nm excitation wavelengths adjusted so that the 510 emission was not saturated for either excitation wavelength. Prior to perfusion with buffers containing substrates, cells were perfused in standard buffer to achieve a stable base line. Fluorescence was reported as the ratio of fluorescence at 510 nm by excitation with 485 and 405 nm wavelengths (F485/F405).

EAAT3 and ASCT1 [2] = target: T2, EAAT3 and ASCT1 (Homo sapiens, UniProt P43005); test: Release of preloaded [3H]-L-glutamate from Xenopus oocytes co-expressing EAAT3 and ASCT1; type: cell-based
T2 construct: expressed in transfected cells; host or cells: Xenopus oocytes
T2 sequence (P43005 1-524): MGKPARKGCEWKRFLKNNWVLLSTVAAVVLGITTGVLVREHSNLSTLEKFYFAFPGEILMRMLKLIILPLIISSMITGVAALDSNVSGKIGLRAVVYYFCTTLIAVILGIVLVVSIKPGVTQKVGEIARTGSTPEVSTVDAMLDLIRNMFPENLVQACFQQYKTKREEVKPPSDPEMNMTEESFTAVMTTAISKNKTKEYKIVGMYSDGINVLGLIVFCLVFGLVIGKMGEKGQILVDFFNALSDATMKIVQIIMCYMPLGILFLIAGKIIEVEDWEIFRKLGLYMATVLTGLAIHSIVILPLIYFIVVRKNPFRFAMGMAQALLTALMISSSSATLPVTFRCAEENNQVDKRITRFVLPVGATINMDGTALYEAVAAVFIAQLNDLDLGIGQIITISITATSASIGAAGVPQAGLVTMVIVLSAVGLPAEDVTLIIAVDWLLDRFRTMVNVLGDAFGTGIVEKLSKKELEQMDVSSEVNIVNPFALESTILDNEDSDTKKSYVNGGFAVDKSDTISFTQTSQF
Protocol: (§1) mRNA from linearized pOTV-EAAT1, pOTV-EAAT2 and pOTV-EAAT3 was generated as previously described and resuspended in RNAase-free water and used for oocytes injections. Xenopus oocytes where injected with 50 nl of mRNA and incubated at 18°C in 96 mM NaCl, 2 mM KCl, 1.8 mM CaCl2, 1.0 mM MgCl2, 5 mM HEPES, pH 7.4 (ND96) supplemented with 2.5 mM Sodium Pyruvate and Gentamicyn for 2 to 3 days prior to using in electrophysiological recordings and radio-labeled transport experiments.
(§2) Oocytes were washed 3 times in ND96 buffer followed by incubation for 10 min with non-radiolabeled substrates as indicated. The supernatant was removed and collected for scintillation counting, while the oocytes were lysed in 1% sodium dodecylsulfate (SDS). The oocytes lysate and supernatant were counted separately by liquid scintillation counting to determine both retained and released radioactivity respectively. Percent of released radioactivity was determined as a function of the released/(retained + released).

EAAT3 and ASCT1 [3] = target: T2, EAAT3 and ASCT1; test: Release of preloaded [35S]-L-cysteine from Xenopus oocytes co-expressing EAAT3 and ASCT1; type: cell-based
Protocol: (§3) mRNA from linearized pOTV-EAAT1, pOTV-EAAT2 and pOTV-EAAT3 was generated as previously described and resuspended in RNAase-free water and used for oocytes injections.
as §2

EAATs = conditions: very low affinity; cited from earlier work
EAAT3 [4] = target: T1, EAAT3; test: Substrate-gated anion (NO3) currents in Xenopus oocytes expressing EAAT3; type: cell-based; conditions: 1 mM substrate; for average anion current amplitude at +60 mV: NaNO3, oocytes expressing EAAT3 alone, Figure 7C, n = 6
Protocol: as §1
(§4) Oocytes were held at −60 mV, and currents elicited by 200 ms voltage steps between −120 mV and +60 mV were filtered at 2 kHz (−3dB) and digitalized with a sampling rate of 10 kHz using a Digidata AD/DA converter (Molecular Devices, Sunnyvale, CA, USA). Borosilicate pipets where filled with 3 M KCl and typical resistances where 0.2 to 1 MΩ. Transport currents were determined at −60 mV in a gluconate-based ND96 solution. In order to dialyze internal chloride, oocytes were incubated 12 to 24 hours in the gluconate solution. Anion currents were determined at positive potentials (+60 mV) after exchanging the external solution to NO3-based ND96 (replacement of 96 mM NaCl with 96 mM NaNO3) solution in the absence or in the presence of 1 mM external substrates. In experiments using cysteine as a substrate, all solutions contained 2 mM dithiothreitol (DTT). Data were analyzed with a combination of pClamp 9.2 (Axon Instrument) and Sigma Plot (Jandel Scientific, San Rafael, CA, USA). Whole cell current amplitudes are shown without any subtraction protocol. Current-voltage relationships were constructed by plotting the isochronal current 6 ms after the voltage step versus the membrane potential. All data are given as the mean ± standard deviation of the mean (SDM). For evaluation the statistical relevance, the Student’s t-Test was used with an α of 0.05.

EAAT2 = EAAT2 (Homo sapiens, UniProt P43004); test: mEGFPpH fluorescence imaging of intracellular pH in HEK293 cells co-expressing EAAT2; type: cell-based; design: expressed in transfected cells; host or cells: HEK293; conditions: 1 mM perfusion
Sequence of EAAT2 (P43004 whole entry, the tested form may be a part): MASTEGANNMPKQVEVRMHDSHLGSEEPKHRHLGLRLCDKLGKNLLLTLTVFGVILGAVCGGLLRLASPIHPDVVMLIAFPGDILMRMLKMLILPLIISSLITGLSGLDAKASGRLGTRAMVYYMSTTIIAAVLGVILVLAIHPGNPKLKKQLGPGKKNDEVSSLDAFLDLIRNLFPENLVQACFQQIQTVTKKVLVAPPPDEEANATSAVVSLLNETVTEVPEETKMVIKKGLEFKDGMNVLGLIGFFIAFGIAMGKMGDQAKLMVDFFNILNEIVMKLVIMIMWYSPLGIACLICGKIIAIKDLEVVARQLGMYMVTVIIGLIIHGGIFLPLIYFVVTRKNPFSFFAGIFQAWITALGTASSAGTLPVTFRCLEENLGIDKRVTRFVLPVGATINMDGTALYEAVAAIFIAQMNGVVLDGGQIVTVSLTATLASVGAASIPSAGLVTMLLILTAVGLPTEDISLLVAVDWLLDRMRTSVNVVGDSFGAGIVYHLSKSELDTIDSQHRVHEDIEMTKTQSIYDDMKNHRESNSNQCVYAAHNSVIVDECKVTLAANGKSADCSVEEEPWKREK
Source text: as §5

EAAT3 and ASCT1 [5] = test: Substrate-gated NO3 currents in Xenopus oocytes co-expressing EAAT3 and ASCT1; type: cell-based, human; conditions: 1 mM substrate, oocytes co-expressing EAAT3 and ASCT1, n = 4
Protocol: as §1
as §4, with “In experiments using cysteine as a substrate, all solutions contained 2 mM dithiothreitol (DTT).” left out, “Whole cell current amplitudes are shown without any subtraction protocol. Current-voltage relationships were constructed by plotting the isochronal current 6 ms after the voltage step versus the membrane potential. All data are given as the mean ± standard deviation of the mean (SDM). For evaluation the statistical relevance, the Student’s t-Test was used with an α of 0.05.” left out

EAAT3 [6] = target: T1, EAAT3; test: Glutamate inhibition of [35S]-L-cysteine uptake in Xenopus oocytes expressing EAAT3; type: cell-based; design: expressed in transfected cells; host or cells: HEK293
Protocol: as §1
Cysteine transport was measured for 10 min in Xenopus oocytes with serial dilution of a mixture of 10 mM cysteine and 20 nM [^35S]-L-cysteine in ND96. Transport was terminated by three washes of ND96, after which accumulated radiolabel was quantitated by liquid scintillation counting. […] Transport was terminated by three washes in ND96 followed by liquid scintillation counting.

EAAT3 and ASCT1 [7] = test: Release of preloaded [35S]-L-cysteine from Xenopus oocytes co-expressing EAAT3 and ASCT1; type: cell-based, human; conditions: 10 min
Protocol: as §3, §2

[8] = substrate: N[C@@H](C[SeH])C(=O)O; test: Two-electrode voltage clamp transport currents in Xenopus oocytes expressing EAAT3; type: cell-based, human; conditions: other: -60 mV, normalized transport current vs concentration, n = 6; pH 7.4; 18.0 °C
Protocol: as §1
as §4, with “In experiments using cysteine as a substrate, all solutions contained 2 mM dithiothreitol (DTT).” left out, “Whole cell current amplitudes are shown without any subtraction protocol. Current-voltage relationships were constructed by plotting the isochronal current 6 ms after the voltage step versus the membrane potential. All data are given as the mean ± standard deviation of the mean (SDM). For evaluation the statistical relevance, the Student’s t-Test was used with an α of 0.05.” left out

[9] = substrate: N[C@@H](CCC(=O)O)C(=O)O; test: cells, lysate or membranes; conditions: other: slope normalized to 1 mM glutamate, 0.5 µM to 2 mM glutamate; pH 7.35; 37.0 °C
[10] = substrate: N[C@@H](CCC(=O)O)C(=O)O; test: cells, lysate or membranes; type: cell-based, human; conditions: other: similarly transfected HEK293 cells
Protocol: For radiolabeled transport experiments, 2×10^6 cells were transfected in 1 mL of Opti-Mem (Life Technologies) using 6 µL of Lipofectamine 2000 (Invitrogen) with 1 µg pCMV-EAAT2 or pCMV-EAAT3 DNA and plated at 5×10^4 cells/well in 24 well Costar (Corning) plates with 0.5 mL DMEM culture media prepared as above. Following transfection and plating, cells were cultured 2–3 days prior to [^3H]-L-Glutamate transport experiments.

N[C@H](CC(=O)O)C(=O)O [D-aspartate]
mEGFPpH fluorescence change (EAAT3 [1]; 100 µM perfusion): fluorescence decrease similar to that observed for 100 µM glutamate

Cl.N [NH4Cl]
average intracellular pH (pHi) (HEK293 cells; after NH4Cl washout): ~6.5 | average intracellular pH (pHi) (HEK293 cells; during 50 mM NH4Cl perfusion, initial pHi ~7.4, n = 4): ~8.5

N[C@H](C(=O)O)[C@H](OCc1ccccc1)C(=O)O [TBOA]
effect on [3H]-L-glutamate release induced by K+ containing buffer (EAAT3 and ASCT1 [2]; TBOA co-application, data not shown): blocking this release | effect on [3H]-L-glutamate release induced by 100 µM L-glutamate (EAAT3 and ASCT1 [2]; TBOA co-incubation): blocked | effect on [3H]-L-glutamate release induced by cysteine (EAAT3 and ASCT1 [2]; TBOA co-incubation): blocked | effect on [35S]-L-cysteine release in presence of 100 µM glutamate (EAAT3 and ASCT1 [3]; TBOA co-incubation): not significantly inhibited | effect on [35S]-cysteine release induced by 300 µM cysteine (EAAT3 and ASCT1 [3]; TBOA co-incubation): not inhibited | effect on cysteine-induced mEGFPpH fluorescence increase (EAAT3 [1]; 100 µM TBOA co-applied with 1 mM cysteine): blocked | effect on glutamate-induced mEGFPpH fluorescence changes (EAAT3 [1]; co-application with glutamate, data not shown): blocked

C[C@H](N)C(=O)O [alanine]
affinity for the transporters (EAATs): > 1 mM

N[C@@H](CCC(=O)O)C(=O)O [glutamate, L-glutamate]
anion current amplitude at +60 mV (EAAT3 [4]; NO3-based solution, Figure 2C, n = 4): 1.78±0.4 µA | average anion current amplitude at +60 mV (EAAT3 [4]): 2.2±0.12 µA | release of loaded [3H]-L-glutamate (EAAT3 and ASCT1 [2]; 100 µM extracellular substrate): 5% | release of preloaded [35S]-L-cysteine (EAAT3 and ASCT1 [3]; 100 µM extracellular substrate, 10 min): less than 2% | mEGFPpH fluorescence change (EAAT2): significant quench of mEGFPpH fluorescence | mEGFPpH fluorescence change (EAAT3 [1]; 0.5 µM perfusion): no observable fluorescence changes from baseline | mEGFPpH fluorescence change (EAAT3 [1]; 1 mM perfusion): fluorescence decrease | macroscopic anion current amplitude at +60 mV (EAAT3 and ASCT1 [5]): 1.1±0.1 µA | inhibition at 100 µM (EAAT3 [6]; pH 6.9, read-out: inhibition of cysteine transport): 40% | inhibition at 100 µM (EAAT3 [6]; pH 6.9, read-out: inhibition of cysteine uptake): ~75%

N[C@@H](CO)C(=O)O [serine, L-serine]
average anion current amplitude at +60 mV (EAAT3 [4]): 0.60±0.05 µA | release of loaded [3H]-L-glutamate (EAAT3 and ASCT1 [2]; 1 mM extracellular substrate, data not shown): did not induce significant release | release of preloaded [35S]-L-cysteine (EAAT3 and ASCT1 [7]; 300 µM extracellular substrate): 10% | release of preloaded [35S]-L-cysteine (EAAT3 and ASCT1 [7]; 1 mM extracellular substrate): 20% | affinity for the transporters (EAATs): > 1 mM | macroscopic anion current amplitude at +60 mV (EAAT3 and ASCT1 [5]): 0.6±0.07 µA

B1: EAAT3 (Homo sapiens) (protein)
chain: MGKPARKGCEWKRFLKNNWVLLSTVAAVVLGITTGVLVREHSNLSTLEKFYFAFPGEILMRMLKLIILPLIISSMITGVAALDSNVSGKIGLRAVVYYFCTTLIAVILGIVLVVSIKPGVTQKVGEIARTGSTPEVSTVDAMLDLIRNMFPENLVQACFQQYKTKREEVKPPSDPEMNMTEESFTAVMTTAISKNKTKEYKIVGMYSDGINVLGLIVFCLVFGLVIGKMGEKGQILVDFFNALSDATMKIVQIIMCYMPLGILFLIAGKIIEVEDWEIFRKLGLYMATVLTGLAIHSIVILPLIYFIVVRKNPFRFAMGMAQALLTALMISSSSATLPVTFRCAEENNQVDKRITRFVLPVGATINMDGTALYEAVAAVFIAQLNDLDLGIGQIITISITATSASIGAAGVPQAGLVTMVIVLSAVGLPAEDVTLIIAVDWLLDRFRTMVNVLGDAFGTGIVEKLSKKELEQMDVSSEVNIVNPFALESTILDNEDSDTKKSYVNGGFAVDKSDTISFTQTSQF
notes: expressed in transfected cells; host or cells: HEK293
Km [8]: 7.14 ± 0.3 µM | Km [9]: 30 µM | Km [10]: 70 µM

— publication PMC4183567, “Cysteine Transport through Excitatory Amino Acid Transporter 3 (EAAT3)” (PLoS ONE, 2014)
